The text below walks through data of patent US20090306207A1, “Treatment of Drug-Resistant Proliferative Disorders” (priority 2005, published 2009).

The test system of data set [1] is 32Dcl3 cells expressing BCR-ABL E255K. Briefly: Cell viability (trypan blue exclusion), BCR-ABL E255K cells.
Protocol: (§2) The expression of the BCR-ABL proteins was determined by Western blot and kinase assays.
(§3) Transfectants were selected in the absence of IL-3.
(§4) The total number of viable cells was determined by trypan blue exclusion at 72 hours post-treatment. The percent viable cells compared to vehicle-treated controls was determined.
(§5) The wild type comprises 32Dcl3.BCR-ABL cells that ectopically expressed the wild-type p210^BCR-ABL oncoprotein. The total number of viable cells was determined by trypan blue exclusion at 72 hours post-treatment. The percent viable cells compared to vehicle-treated controls was determined.
Data set [2] has as its system 32Dcl3 cells expressing BCR-ABL H396P. Nature of the data set: Cell viability (trypan blue exclusion), BCR-ABL H396P cells. It counts as cell-based, murine. Conditions: Mus musculus, 72 hours.
Data set [3] concerns 32Dcl3.BCR-ABL cells expressing wild-type p210 BCR-ABL. Briefly: Cell viability (trypan blue exclusion), cells expressing wild-type BCR-ABL. It is filed as cell-based, murine. Conditions: for GI50: Mus musculus, 72 hours. How it is done: (§1) Cell viability was then determined by trypan blue exclusion.
Cells expressing the wild-type p210^BCA-ABL oncoprotein (32Dcl3.BCR-ABL) or the BCR-ABL mutations G250E, T315I or M351T, were incubated with varying concentrations of Compound 4 ((E)-1-(2-(4-bromobenzylsulfonyl)vinyl)-2,4-difluorobenzene).

For another data set, the system named is CML K562 cells. Briefly: Cell viability (trypan blue exclusion), K562 cells. It counts as cell-based. How it is done:
K562 cells were maintained in RPMI (Roswell Park Memorial Institute) medium supplemented with 10% FBS and 1 U/ml penicillin-streptomycin.
as §1

The test system of data set [4] is 32Dcl3 cells expressing BCR-ABL F317L. Nature of the data set: Cell viability (trypan blue exclusion), BCR-ABL F317L cells. It counts as cell-based, murine. Conditions: Mus musculus, 72 hours.
The test system of data set [5] is 32Dcl3 cells expressing BCR-ABL Y253H. Nature of the data set: Cell viability (trypan blue exclusion), BCR-ABL Y253H cells. It is filed as cell-based, murine. Conditions: Mus musculus, 72 hours.
Data set [6] deals with 32Dcl3 cells expressing BCR-ABL F359V. Briefly: Cell viability (trypan blue exclusion), BCR-ABL F359V cells. It counts as cell-based, murine. Conditions: Mus musculus, 72 hours.
The subject of data set [7] is 32Dcl3 cells expressing BCR-ABL F311L. Briefly: Cell viability (trypan blue exclusion), BCR-ABL F311L cells.
Protocol: (§6) Mutations corresponding to those published in the literature (Shah et al., Oncogene, 22, 7389-7395 (2003)) were introduced into the bcr-abl cDNA, which was then introduced into actively proliferating 32Dcl3 cells (Rovera et al., Oncogene 1, 29-35 (1987)) according to the following procedure.
as §2, §3, §4, §5
Data set [8] deals with 32Dcl3 cells expressing BCR-ABL Q252H. Nature of the data set: Cell viability (trypan blue exclusion), BCR-ABL Q252H cells. It counts as cell-based, murine. Conditions: 72 hours.
The test system of data set [9] is 32Dcl3 cells expressing BCR-ABL Y253F. Briefly: Cell viability (trypan blue exclusion), BCR-ABL Y253F cells.
Protocol: as §6, §2, §3, §4, §5
The next data set relates to normal bone marrow cells. Nature of the data set: Hematopoietic colony formation assay. It counts as in vivo, CD-1 mice. Conditions: 100 mg/kg intravenous; bone marrow cells extracted after 24 hrs. How it is done: To examine the effects of Compound 1 on normal hematopoietic cell population in vivo, a dose of 100 mg/kg of this compound in normal saline (or saline alone as a control) was injected intravenously (tail vein injection) into CD-1 mice (10 animals per group). The effect on the in vitro hematopoietic colony formation of normal bone marrow cells derived from these mice was determined 24 hrs following administration. Bone marrow cells were extracted from the mice after 24 hrs and 2×10^5 cells were plated on methylcellulose containing appropriate cytokines for lineage specific colony formation. Colonies were counted after 5 to 14 days of incubation.

For data set [10], the system named is 32Dcl3 cells expressing BCR-ABL M244V. Briefly: Cell viability (trypan blue exclusion), BCR-ABL M244V cells. It is filed as cell-based, murine. Conditions: Mus musculus, 72 hours.
In data set [11] the test system is 32Dcl3 cells expressing BCR-ABL E355G. Briefly: Cell viability (trypan blue exclusion), BCR-ABL E355G cells. It is filed as cell-based, murine. Conditions: Mus musculus, 72 hours.
For data set [12], the system named is 32Dcl3 cells expressing BCR-ABL H396R. Briefly: Cell viability (trypan blue exclusion), BCR-ABL H396R cells. It is filed as cell-based, murine. Conditions: Mus musculus, 72 hours.
Data set [13] has as its system 32Dcl3 cells expressing BCR-ABL T315I. Nature of the data set: Cell viability (trypan blue exclusion), BCR-ABL T315I cells.
Protocol: as §6, §2, §3, §4, §5
Data set [14] deals with 32Dcl3 cells transfected to express wild-type or imatinib-resistant forms of BCR-ABL. Nature of the data set: Growth inhibition of the panel of cells expressing wild-type or imatinib-resistant forms of BCR-ABL. It counts as cell-based, murine.
Protocol: as §2, §4, §5
The test system of data set [15] is 32Dcl3 cells expressing BCR-ABL M351T. Nature of the data set: Cell viability (trypan blue exclusion), BCR-ABL M351T cells. Conditions: Mus musculus, 72 hours. It counts as cell-based, murine.
Data set [16] concerns 32Dcl3 cells expressing BCR-ABL E255V. Briefly: Cell viability (trypan blue exclusion), BCR-ABL E255V cells.
Protocol: as §6, §2, §3, §4, §5
In data set [17] the test system is 32Dcl3 cells expressing BCR-ABL G250E. Briefly: Cell viability (trypan blue exclusion), BCR-ABL G250E cells.
Protocol: as §6, §2, §3, §4, §5
The test system of a further data set is 32D/BCR-ABL^T315I cells. Briefly: In vivo growth of cells expressing imatinib-resistant BCR-ABL T315I (blood smears). Also noted: species or system athymic nude mice. Conditions: 100 mg/kg daily intraperitoneal; days 7 and 14; compared to vehicle and imatinib treated groups. As to the method:
Blood smears on the treated mice were performed 7 and 14 days after the start of treatments. One drop of blood from each mouse was smeared onto glass slides, air dried and stained with modified Wright stain (Sigma). The T315I cells in the blood were easily visible due to their blue staining and size difference. The number of T315I cells per 10 fields was determined by counting 10 fields of view containing an equal density of red blood cells using a 40× objective on an upright Olympus microscope.

Data set [18] has as its system 32Dcl3 cells expressing BCR-ABL L387M. Nature of the data set: Cell viability (trypan blue exclusion), BCR-ABL L387M cells.
Protocol: as §2, §3, §4, §5
The nature of data set [19]: Toxicity in treated mice (body weight, signs). Conditions: 100 mg/kg daily intraperitoneal for 10 days. As to the method:
Female athymic nude mice (ncr/ncr) were injected intravenously with 1×10^6 32Dcl3 cells expressing the mutant BCR-ABL^T315I via the tail vein.
Body weights of the test animals were taken every two days.

As to `COc1cc(OC)c(/C=C/S(=O)(=O)Cc2ccc(OC)c(NC(C)C(=O)O)c2)c(OC)c1` (centres unmarked) [Compound 1, (E)-2-(5-((2,4,6-trimethoxystyrylsulfonyl)methyl)-2-methoxyphenylamino) propanoic acid], the LD50 in [1] (E255K, 72 hours) was 8.4 nM; in [7] (F311L, 72 hours), 6.8 nM; in data set [8] it was 7.0 nM; in data set [9] (72 hours), 6.8 nM; in data set [13] (T315I, 72 hours), 7.5 nM; in data set [16] (E255V, 72 hours), 7.8 nM. In addition, the LD50 amounted to 5.9 nM in data set [17] (G250E, 72 hours) and 7.1 nM in data set [18] (L387M, 72 hours). Besides, the GI50 in [2] stood at 0.0079 µM; in data set [3] (None (wt), trypan blue exclusion), 0.01 µM; in data set [4], 0.0078 µM; in data set [5], 0.0078 µM; in data set [6], 0.0071 µM; in [10], 0.0078 µM. Further, the results for the GI50 in data set [11], in [12] and in data set [15] were 0.0078 µM, 0.0068 µM and 0.0078 µM, respectively. In addition, the “LD50 (loss of viability)” value was in the range of 10 to 15 nM in [3] (32Dcl3.BCR-ABL cells, 72 hours incubation) and 10 to 15 nM in the data set on CML K562 cells (K562 cells, 72 hours incubation). Moreover, the “concentration inhibiting proliferation, fold less than that shown for imatinib” value in the data set on CML K562 cells (BCR-ABL+ cell lines (K562 and 32Dcl3.BCR-ABL)) is on record as 10 fold. In the data set on normal bone marrow cells, the “colony formation of the erythroid, myeloid or lymphoid lineages” value is on record as “No reduction in colony formation”. For the same molecule, the “sensitivity to growth inhibitory activity” value in data set [14] (all transfected cell lines, including T315I mutant, various concentrations, 72 hours) is “extremely sensitive”. The “number of T315I cells in the blood” value in the data set on 32D/BCR-ABL^T315I cells is given as “significantly reduced”.

In the case of `COc1cc(OC)c(/C=C/S(=O)(=O)Cc2ccc(OC)c(NCC(=O)O)c2)c(OC)c1` [Compound 2, (E)-2-(5-((2,4,6-trimethoxystyrylsulfonyl)methyl)-2-methoxyphenylamino) acetic acid], in [14] (cell lines listed in Table 2, 250 nM), the “sensitivity to growth-inhibitory activity” value is on record as “sensitive”.

Consider `COc1cc(OC)c(/C=C/S(=O)(=O)Cc2ccc(OC)c(NC(C)(C)C(=O)O)c2)c(OC)c1` [Compound 3, (E)-2-(5-((2,4,6-trimethoxystyryl-sulfonyl)methyl)-2-methoxyphenylamino)-2-methylpropanoic acid], for which the GI50 in data set [1] (Mus musculus, 72 h) was found to be 0.05 µM; in data set [2] it was 0.05 µM; in data set [3] (Wild-type), 0.04 µM; in data set [4], 0.06 µM; in data set [5] it was 0.03 µM; in data set [6], 0.07 µM. Besides, the GI50 in data set [7] (Mus musculus, 72 h) is 0.07 µM; in data set [8] (Mus musculus) it was 0.04 µM; in data set [9] (72 hours), 0.07 µM; in [9] (Mus musculus, 72 h), 0.04 µM; in data set [11], 0.05 µM; in data set [12], 0.06 µM. Besides, the GI50 in [13] (Mus musculus, 72 h) was determined as 0.06 µM; in data set [15], 0.06 µM; in data set [16] (Mus musculus, 72 h) it was 0.05 µM; in data set [17] (Mus musculus, 72 h) it was 0.025 µM; in data set [18] (Mus musculus, 72 h) it was 0.05 µM. Also, the “sensitivity to growth-inhibitory activity” value in data set [14] (cell lines listed in Table 3, various concentrations, 72 hours) was “sensitive”.

Take `O=S(=O)(/C=C/c1ccc(F)cc1F)Cc1ccc(Br)cc1` [Compound 4, (E)-1-(2-(4-bromobenzylsulfonyl)vinyl)-2,4-difluorobenzene]: the “sensitivity to growth-inhibitory activity” value in data set [14] (wild-type, G250E, T315I or M351T, varying concentrations, 72 hours) was “sensitive”.

On to `Cc1ccc(NC(=O)c2ccc(CN3CCN(C)CC3)cc2)cc1Nc1nccc(-c2cccnc2)n1` [imatinib, Imatinib], for which, in data set [19], the loss of bodyweight is given as above 20%.

Usually GI50 stands for the concentration that inhibits growth by half. A lower GI50 goes with greater sensitivity of the cells.
